Measured values published in patent US11045411B2, “Process for treating keratin materials using amide, acid or ester c-glycoside derivatives, and cosmetic composition containing same” (L'OREAL, priority 2015, dated 2021).
Where “and” joins values, the source holds several entries; their conditions need not be identical. Equal entries are not always repeated.

What was measured:
[1] = tested on: normal human epidermal keratinocytes; assay: Synthesis of total glycosaminoglycans, [3H]-glucosamine incorporation in normal human epidermal keratinocytes; assay type: cell-based; conditions: for % relative to control, glucosamine incorporation / Mean value, radioactive glucosamine incorporated: 72 hours; for incorporation of radioactive glucosamine: result in words
Procedure: The study is carried out by measuring the incorporation of radioactive glucosamine into the matrix neosynthesized by cultures of normal human epidermal keratinocytes. The incorporation of radioactive [^3H]-glucosamine indicates a specific neosynthesis of total glycosaminoglycans.
The test is carried out on a culture of normal human epidermal keratinocytes in a 96-well plate and cultured in culture medium for 24 hours:
Culture medium: Keratinocytes-SFM supplemented with 0.5 ng/ml epidermal growth factor (EGF), 25 μg/ml pituitary extract, 25 μg/ml gentamycin.
Culture conditions: 37° C.; 5% CO2
The medium was then replaced with culture medium containing or not containing (control) the compound (I) tested or the references 4-nitrophenyl-B-D-xylopyranoside (tested at 300 μM) and 4-methylumbelliferyl-B-D-xylopyranoside (tested at 54 μM) or the solvent control (DMSO at 0.1%), then the cells were incubated for 72 hours with addition of the [^3H]-glucosamine label for the final 24 hours of incubation.
The test was carried out with 3 assays for each compound tested, at the concentrations of 1, 10, 100 and 300 μM.
At the end of the incubation, the glycosaminoglycans were extracted from the cells with a chaotropic buffer. The level of radioactive glucosamine incorporated is measured at the end of the test by adsorption of the anionic molecules on Q-sepharose beads, followed by desorption of the molecules having low and medium anionicity with 6M urea plus 0.2 M NaCl. Once washed, the radioactivity incorporated into the very […] molecules remaining on the support is counted.
The results were evaluated relative to a control constituted of cells which had not been treated with the compound (I).
A positive control (TGFβ at 0.25 ng/ml) known to stimulate GAG synthesis was introduced into the test carried as a positive reference.

GLUT-1 = GLUT-1 expression in normal human keratinocytes by immuno labeling; assay type: cell-based; conditions: for GLUT-1 expression vs 100% control: 48 hours, n=3; for expression of the GLUT-1 protein: result in words
Procedure: Normal human keratinocytes (NHKs) were seeded and cultured in culture medium for 24 hours and then in test medium for a further 24 hours. After incubation, the medium was replaced with test medium containing or not containing (control) the test compounds or the references, and then the cells were incubated for 48 hours. All the experimental conditions were performed in n=3. After incubation, the culture medium was removed and the cells were rinsed, fixed and permeabilized. GLUT-1 expression was determined by immuno labeling.

SMILES	% relative to control, glucosamine incorporation ([1]; 54 μM) [%]	Mean value, radioactive glucosamine incorporated ([1]; 54 μM) [cpm]	% relative to control, glucosamine incorporation ([1]; 300 μM) [%]	Mean value, radioactive glucosamine incorporated ([1]; 300 μM) [cpm]	GLUT-1 expression vs 100% control (GLUT-1; compound at 10 μM)	expression of the GLUT-1 protein (GLUT-1)	% relative to control, glucosamine incorporation ([1]; 1 μM) [%]	Mean value, radioactive glucosamine incorporated ([1]; 1 μM) [cpm]	% relative to control, glucosamine incorporation ([1]; 10 μM) [%]	Mean value, radioactive glucosamine incorporated ([1]; 10 μM) [cpm]	% relative to control, glucosamine incorporation ([1]; 100 μM) [%]	Mean value, radioactive glucosamine incorporated ([1]; 100 μM) [cpm]	incorporation of radioactive glucosamine ([1]; concentration of 1 μM)	incorporation of radioactive glucosamine ([1]; concentration of 10 μM)	incorporation of radioactive glucosamine ([1]; concentration of 300 μM)	incorporation of radioactive glucosamine ([1]; concentration of 100 μM)	GLUT-1 expression vs 100% control (GLUT-1; Reference 2 mM metformine)
Cc1cc(=O)oc2cc(O[C@@H]3OC[C@@H](O)[C@H](O)[C@H]3O)ccc12 [4-methylumbelliferyl-β-D-xylopyranoside, 4-methylumbelliferyl-B-D-xylopyranoside, reference compound]	213	32202	–	–	–	–	–	–	–	–	–	–	–	–	–	–	–
O=[N+]([O-])c1ccc(O[C@@H]2OC[C@@H](O)[C@H](O)[C@H]2O)cc1 [4-nitrophenyl β-D-xylopyranoside, 4-nitrophenyl-B-D-xylopyranoside, reference compound]	–	–	207	31280	–	–	–	–	–	–	–	–	–	–	–	–	–
CNC(=O)C(O)C1O[C@H](CO)[C@@H](O)[C@H](O)[C@H]1O (stereo partly shown) [Compound 1]	–	–	97	16850	159% (p < 0.05)	very significantly stimulated	125	21591	117	20216	118	20451	stimulate the incorporation of radioactive glucosamine	–	–	–	–
CCCNC(=O)C(O)C1O[C@H](CO)[C@@H](O)[C@H](O)[C@H]1O (stereo partly shown) [Compound 2]	–	–	127	16929	–	–	110	14638	126	16779	123	16435	–	stimulate the incorporation of radioactive glucosamine	–	–	–
CCCCCCCCCCCCCCNC(=O)C(O)C1O[C@H](CO)[C@@H](O)[C@H](O)[C@H]1O (stereo partly shown) [Compound 4]	–	–	–	–	142% (p < 0.01)	very significantly stimulated	–	–	–	–	–	–	–	–	–	–	–
CNC(=O)C(O)C1OC[C@@H](O)[C@H](O)[C@H]1O (stereo partly shown) [Compound 5]	–	–	116	15495	–	–	134	17792	121	16133	119	15835	stimulate the incorporation of radioactive glucosamine	–	–	–	–
CNC(=O)C(O)C1O[C@@H](C)[C@H](O)[C@@H](O)[C@H]1O (stereo partly shown) [Compound 9]	–	–	169	22845	–	–	120	16162	114	15439	131	17655	–	–	stimulates the incorporation of radioactive glucosamine	–	–
CNC(=O)C(O)C1O[C@H](CO)[C@@H](O)[C@H](O)[C@@H]1O (stereo partly shown) [Compound 13]	–	–	139	18804	–	–	119	16090	129	17340	134	18139	–	stimulate the incorporation of radioactive glucosamine	–	–	–
CNC(=O)C(O)C1O[C@H](CO)[C@H](O)[C@H](O)[C@H]1O (stereo partly shown) [Compound 17]	–	–	108	14498	–	–	129	17387	123	16614	132	17861	stimulates the incorporation of radioactive glucosamine	stimulates the incorporation of radioactive glucosamine	–	stimulates the incorporation of radioactive glucosamine	–
CNC(=O)C(O)C1O[C@H](CO)[C@@H](OC2O[C@H](CO)[C@H](O)[C@H](O)[C@H]2O)[C@H](O)[C@H]1O (stereo partly shown) [Compound 21]	–	–	134	17429	–	–	142	18416	136	17611	137	17796	stimulates the incorporation of radioactive glucosamine	stimulates the incorporation of radioactive glucosamine	stimulates the incorporation of radioactive glucosamine	–	–
CN(C)C(=N)N=C(N)N [metformine, reference compound]	–	–	–	–	–	–	–	–	–	–	–	–	–	–	–	–	252% (p < 0.01) and 296% (p < 0.001)
